Data from US20260262643A1, “HERBICIDAL BENZOXAZINES” (FMC CORPORATION, priority 2022, published 2026).

Key:
ryegrass, Italian [1] = test: Test C postemergence; type: in vivo, Lolium multiflorum; details: 10 days
Method in brief: (§1)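 Visual injury ratings on a 0–100 scale (100 = complete control) were made against untreated controls 10 days after treatment in the greenhouse. Compounds, formulated with surfactant in non-phytotoxic solvent, were sprayed on soil preemergence or onto one- to two-leaf plants 2–10 cm tall postemergence.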

ducksalad = test: Test D flooded paddy test; type: in vivo, Heteranthera limosa; details: 250 g ai/ha, applied to paddy water, visual rating after 13 to 14 days, scale 0 to 100 (0 no effect, 100 complete control)
Method in brief: (§2)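 Seedlings reached the 2-leaf stage, then pots were flooded to 3 cm over the soil surface. Compound was applied into the water, depth was maintained, and plants stayed in the greenhouse 13 to 14 days before visual scoring (0–100) relative to controls.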

wheat [2] = test: Test C preemergence; type: in vivo, Triticum aestivum; details: 0 to 100 scale (0 no effect, 100 complete control)
Method in brief: as §1

galium = test: Test C postemergence; type: in vivo, Galium aparine; details: 10 days
Method in brief: as §1

pigweed, palmer [3] = test: Test C postemergence; type: in vivo, Amaranthus palmeri; details: 10 days
Method in brief: as §1

sedge, umbrella = test: Test D flooded paddy test; type: in vivo, Cyperus difformis; details: 250 g ai/ha, applied to paddy water, visual rating after 13 to 14 days, scale 0 to 100 (0 no effect, 100 complete control)
Method in brief: as §2

green foxtail [4] = test: Test C postemergence; type: in vivo, Setaria viridis; details: 10 days
Method in brief: as §1

oat, wild [5] = test: Test C preemergence; type: in vivo, Avena fatua; details: 0 to 100 scale (0 no effect, 100 complete control)
Method in brief: as §1

corn [6] = test: Test C preemergence; type: in vivo, Zea mays; details: 0 to 100 scale (0 no effect, 100 complete control)
Method in brief: as §1

soybean [7] = test: Test C postemergence; type: in vivo, Glycine max; details: 10 days
Method in brief: as §1

horseweed = test: Test C postemergence; type: in vivo, Erigeron canadensis; details: 10 days
Method in brief: as §1

pigweed, palmer [8] = test: Test C preemergence; type: in vivo, Amaranthus palmeri; details: 0 to 100 scale (0 no effect, 100 complete control)
Method in brief: as §1

kochia [9] = test: Test C preemergence; type: in vivo, Bassia scoparia; details: Preemergence, 500 g ai/ha; visual rating after 10 days, 0 to 100 scale (0 no effect, 100 complete control)
Method in brief: as §1

blackgrass [10] = test: Test C preemergence; type: in vivo, Alopecurus myosuroides; details: 0 to 100 scale (0 no effect, 100 complete control)
Method in brief: as §1

green foxtail [11] = test: Test C preemergence; type: in vivo, Setaria viridis; details: 0 to 100 scale (0 no effect, 100 complete control)
Method in brief: as §1

ragweed [12] = test: Test C postemergence; type: in vivo, Ambrosia artemisiifolia; details: 10 days
Method in brief: as §1

corn [13] = test: Test C postemergence; type: in vivo, Zea mays; details: 10 days
Method in brief: as §1

wheat [14] = test: Test C postemergence; type: in vivo, Triticum aestivum; details: 10 days
Method in brief: as §1

blackgrass [15] = test: Test C postemergence; type: in vivo, Alopecurus myosuroides; details: 10 days
Method in brief: as §1

ryegrass, Italian [16] = test: Test C preemergence; type: in vivo, Lolium multiflorum; details: 0 to 100 scale (0 no effect, 100 complete control)
Method in brief: as §1

barnyardgrass [17] = test: Test C postemergence; type: in vivo, Echinochloa crusgalli; details: 10 days
Method in brief: as §1

barnyardgrass [18] = test: Test C preemergence; type: in vivo, Echinochloa crusgalli; details: 0 to 100 scale (0 no effect, 100 complete control)
Method in brief: as §1

rice = test: Test D flooded paddy test; type: in vivo, Oryza sativa; details: 250 g ai/ha, applied to paddy water, visual rating after 13 to 14 days, scale 0 to 100 (0 no effect, 100 complete control)
Method in brief: as §2

kochia [19] = test: Test C postemergence; type: in vivo, Bassia scoparia; details: 10 days
Method in brief: as §1

soybean [20] = test: Test C preemergence; type: in vivo, Glycine max; details: 0 to 100 scale (0 no effect, 100 complete control)
Method in brief: as §1

barnyardgrass [21] = test: Test D flooded paddy test; type: in vivo, Echinochloa crus-galli; details: 250 g ai/ha, applied to paddy water, visual rating after 13 to 14 days, scale 0 to 100 (0 no effect, 100 complete control)
Method in brief: as §2

oat, wild [22] = test: Test C postemergence; type: in vivo, Avena fatua; details: 10 days
Method in brief: as §1

ragweed [23] = test: Test C preemergence; type: in vivo, Ambrosia artemisiifolia; details: 0 to 100 scale (0 no effect, 100 complete control)
Method in brief: as §1

[24] = 125 g ai/ha, postemergence, 0 to 100 scale, 0 no effect, 100 complete control
[25] = Postemergence, 500 g ai/ha, visual 0 to 100 scale (0 no effect, 100 complete control)
[26] = Preemergence, 500 g ai/ha, visual rating after 10 days
[27] = Test C, preemergence, 125 g ai/ha

**Q.** With `CC(C)c1ncn(-c2ccc([S+]([O-])C(F)(F)F)c(C(=O)N3C[C@H](C)Oc4c(Cl)cccc43)c2)n1` (stereo partly drawn) [Compound 191] as the molecule, how does the “Plant response rating, Ryegrass, Italian” value (ryegrass, Italian [1]; [24]) read?
**A.** 0

**Q.** What about the “Plant response rating, Ryegrass, Italian” value (ryegrass, Italian [1]; [25]) of the same molecule?
**A.** 0

**Q.** And the “Plant response rating, Ducksalad (Flood)” value (ducksalad)?
**A.** 0

**Q.** And the “Plant response rating, Wheat” value (wheat [2]; [26])?
**A.** 0

**Q.** And the “Wheat plant response rating” value (wheat [2]; [27])?
**A.** 0

**Q.** What about the “Plant response rating, Galium” value (galium; [24]) of the same molecule?
**A.** 0

**Q.** And the “Plant response rating, Galium” value (galium; [25])?
**A.** 50

**Q.** And the “Plant response rating, Pigweed, Palmer” value (pigweed, palmer [3]; [24])?
**A.** 0

**Q.** And the “Plant response rating, Pigweed, Palmer” value (pigweed, palmer [3]; [25])?
**A.** 30

**Q.** And the “Plant response rating, Sedge, Umbrella (Flood)” value (sedge, umbrella)?
**A.** 0

**Q.** And the “Plant response rating, Foxtail, Green” value (green foxtail [4]; [24])?
**A.** 0

**Q.** What about the “Plant response rating, Foxtail, Green” value (green foxtail [4]; [25]) of the same molecule?
**A.** 0

**Q.** What about the “Plant response rating, Oat, Wild” value (oat, wild [5]; [26]) of the same molecule?
**A.** 0

**Q.** What about the “Oat, Wild plant response rating” value (oat, wild [5]; [27]) of the same molecule?
**A.** 0

**Q.** And the “Plant response rating, Corn” value (corn [6]; [26])?
**A.** 0

**Q.** What about the “Corn plant response rating” value (corn [6]; [27]) of the same molecule?
**A.** 0

**Q.** What about the “Plant response rating, Soybean” value (soybean [7]; [24]) of the same molecule?
**A.** 40

**Q.** And the “Plant response rating, Soybean” value (soybean [7]; [25])?
**A.** 90

**Q.** What about the “Plant response rating, Horseweed” value (horseweed; [24]) of the same molecule?
**A.** 0

**Q.** What about the “Plant response rating, Horseweed” value (horseweed; [25]) of the same molecule?
**A.** 0

**Q.** What about the “Plant response rating, Pigweed, Palmer” value (pigweed, palmer [8]; [26]) of the same molecule?
**A.** 0

**Q.** What about the “Pigweed, Palmer plant response rating” value (pigweed, palmer [8]; [27]) of the same molecule?
**A.** 0

**Q.** What about the “Plant response rating, Kochia” value (kochia [9]) of the same molecule?
**A.** 0

**Q.** What about the “Plant response rating, Blackgrass” value (blackgrass [10]; [26]) of the same molecule?
**A.** 20

**Q.** What about the “Blackgrass plant response rating” value (blackgrass [10]; [27]) of the same molecule?
**A.** 0

**Q.** What about the “Plant response rating, Foxtail, Green” value (green foxtail [11]; [26]) of the same molecule?
**A.** 0

**Q.** And the “Foxtail, Green plant response rating” value (green foxtail [11]; [27])?
**A.** 0

**Q.** What about the “Plant response rating, Ragweed” value (ragweed [12]; [24]) of the same molecule?
**A.** 0

**Q.** And the “Plant response rating, Ragweed” value (ragweed [12]; [25])?
**A.** 0

**Q.** What about the “Plant response rating, Corn” value (corn [13]; [24]) of the same molecule?
**A.** 0

**Q.** And the “Plant response rating, Corn” value (corn [13]; [25])?
**A.** 0

**Q.** And the “Plant response rating, Wheat” value (wheat [14]; [24])?
**A.** 10

**Q.** And the “Plant response rating, Wheat” value (wheat [14]; [25])?
**A.** 10

**Q.** What about the “Plant response rating, Blackgrass” value (blackgrass [15]; [24]) of the same molecule?
**A.** 0

**Q.** What about the “Plant response rating, Blackgrass” value (blackgrass [15]; [25]) of the same molecule?
**A.** 0

**Q.** And the “Plant response rating, Ryegrass, Italian” value (ryegrass, Italian [16]; [26])?
**A.** 20

**Q.** And the “Ryegrass, Italian plant response rating” value (ryegrass, Italian [16]; [27])?
**A.** 0

**Q.** What about the “Plant response rating, Barnyardgrass” value (barnyardgrass [17]; [24]) of the same molecule?
**A.** 10

**Q.** What about the “Plant response rating, Barnyardgrass” value (barnyardgrass [17]; [25]) of the same molecule?
**A.** 10

**Q.** And the “Plant response rating, Barnyardgrass” value (barnyardgrass [18]; [26])?
**A.** 0

**Q.** What about the “Barnyardgrass plant response rating” value (barnyardgrass [18]; [27]) of the same molecule?
**A.** 0

**Q.** And the “Plant response rating, Rice (Flood)” value (rice)?
**A.** 0

**Q.** What about the “Plant response rating, Kochia” value (kochia [19]; [24]) of the same molecule?
**A.** 20

**Q.** What about the “Plant response rating, Kochia” value (kochia [19]; [25]) of the same molecule?
**A.** 20

**Q.** What about the “Plant response rating, Soybean” value (soybean [20]; [26]) of the same molecule?
**A.** 0

**Q.** What about the “Soybean plant response rating” value (soybean [20]; [27]) of the same molecule?
**A.** 0

**Q.** What about the “Plant response rating, Barnyardgrass (Flood)” value (barnyardgrass [21]) of the same molecule?
**A.** 0

**Q.** What about the “Plant response rating, Oat, Wild” value (oat, wild [22]; [24]) of the same molecule?
**A.** 0

**Q.** And the “Plant response rating, Oat, Wild” value (oat, wild [22]; [25])?
**A.** 0

**Q.** What about the “Plant response rating, Ragweed” value (ragweed [23]; [26]) of the same molecule?
**A.** 0

**Q.** What about the “Ragweed plant response rating” value (ragweed [23]; [27]) of the same molecule?
**A.** 0
